The nature of data set [1]: Oxygen Radical Absorbance Capacity (ORAC) assay. Particulars: samples 100 μg/mL properly diluted, AAPH 100 mM, fluorescein 10 nM, 37 °C, pH 7.0; values only in Figure 7. The class given is biochemical.
Description: The ORAC assay determined the fluorescence decrease of fluorescein (10 nM) after its oxidation in the presence of AAPH and the investigated samples (100 μg/mL) properly diluted, as previously reported [46, 47]. The assays were carried out at 37 °C, pH 7.0 recording fluorescence through a Wallac Victor 1420 Multilabel Counters fluorimeter (PerkinElmer, Waltham, MA, USA) (excitation λ = 540 nm, emission λ = 570 nm). Trolox (12.5 μM) and phosphate buffer were used as control standard and blank, respectively. The area under the quenching curve of fluorescein was used to calculate ORAC value of the investigated compounds using Origin®7 (OriginLab Corporation, Northampton, USA). ORAC Units, expressed as trolox micromole per microgram of sample (μmol/μg), were obtained according to Equation (2): ORAC value (μmol/μg) = K(S sample − S blank)/(S Trolox − S blank) (2) where K is the sample dilution factor, S the area under the fluorescence decay curve of sample, trolox or blank. Each experiment was performed in triplicate and data were expressed as mean ± SD
Data set [2] addresses T1, bovine serum albumin (BSA) (Bos taurus, UniProt P02769).
T1 construct: purchased Sigma-Aldrich S.r.l; (Milan, Italy)
The data set is described as follows: Anti-glycation activity, AGEs formation through Maillard reaction (BSA + D-fructose). The class given is biochemical. Particulars: samples 400 μg/mL, BSA 10 mg/mL + D-fructose 0.5 M, pH 7.4, 37 °C, 7 days; values only in Figure 8. The method, then: Protein model bovine serum albumin (BSA) (10 mg/mL) incubated with D-fructose (0.5 M) in phosphate buffer 50 mM, pH 7.4 and NaN3 0.02% was used as positive control. BSA alone was the negative control while aminoguanidine (AMG) (400 μg/mL) was used as a reference. Final glycated BSA solutions (300 μL), alone and with samples (400 μg/mL), were incubated at 37 °C in 96-well microtiter closed with their silicon lids for 7 days. The inhibition of fluorescence was determined using a Wallac Victor 1420 Multilabel Counters fluorimeter (PerkinElmer, Waltham, MA, USA) (λexc 370 nm; λem 440 nm). Relative fluorescence units (RFU) were recorded and the percentage of AGEs formation inhibition was calculated as follows (Equation (3)): % of inhibition = {1 − (RFU sample/RFU Positive control)} × 100 (3)
Each experiment was performed in triplicate and data were expressed as mean ± SD Statistical analysis of the results was performed using Student’s t-test (p < 0.05).

The nature of data set [3]: Chemical stability (chemical hydrolysis) at different pH and temperature, HPLC of residual RSVTR. In kind it is physicochemical. Particulars: dark. The procedure: The chemical hydrolysis of RSVTR was studied at pH 2.0 (0.2 N HCI), 6.8 and 7.2 (phosphate buffer solutions). All solutions containing the same amount of RSVTR (1.18 µM) were kept in the dark at a constant temperature of 37 °C, 22 °C, and 5 °C. At appropriate time intervals, chosen to obtain enough data to pinpoint the stability profile (0, 2, 4, 8, 24, 48, 72, 96, 168, 696 h at pH 7.2; 0, 2, 4, 8, 24, 48, 72, 96, 192, 528, 768 h at pH 6.8; 0, 2, 4, 8, 24, 48, 72, 96, 528 h at pH 2.0), samples were withdrawn and analyzed immediately by HPLC for the residual RSVTR.
Pseudo-first-order rate constants were determined from the slope of the linear portion of the graph obtained, plotting the logarithm of the residual amount of RSVTR against time. RSVTR half-life (t1/2) was calculated according to Equation (1): t1/2 = […] (1) where k is the pseudo-first-order rate constant.
RSVTR was analyzed using an isocratic binary mobile phase consisting of 5% of acetonitrile and 95% of triethylamine 0.3% (v/v) in water (pH adjusted to 3.0 with trifluoroacetic acid). The flow rate was set at 1.0 mL/min and the column was maintained at 24 °C throughout the analysis. Chromatograms were acquired at 290 nm after analyzing RSVTR UV spectra in the range 200–400 nm and the retention time of RSVTR was approximately 5.40 min. The analytical method was validated according to ICH guidelines.

T1 sequence (P02769 25-607): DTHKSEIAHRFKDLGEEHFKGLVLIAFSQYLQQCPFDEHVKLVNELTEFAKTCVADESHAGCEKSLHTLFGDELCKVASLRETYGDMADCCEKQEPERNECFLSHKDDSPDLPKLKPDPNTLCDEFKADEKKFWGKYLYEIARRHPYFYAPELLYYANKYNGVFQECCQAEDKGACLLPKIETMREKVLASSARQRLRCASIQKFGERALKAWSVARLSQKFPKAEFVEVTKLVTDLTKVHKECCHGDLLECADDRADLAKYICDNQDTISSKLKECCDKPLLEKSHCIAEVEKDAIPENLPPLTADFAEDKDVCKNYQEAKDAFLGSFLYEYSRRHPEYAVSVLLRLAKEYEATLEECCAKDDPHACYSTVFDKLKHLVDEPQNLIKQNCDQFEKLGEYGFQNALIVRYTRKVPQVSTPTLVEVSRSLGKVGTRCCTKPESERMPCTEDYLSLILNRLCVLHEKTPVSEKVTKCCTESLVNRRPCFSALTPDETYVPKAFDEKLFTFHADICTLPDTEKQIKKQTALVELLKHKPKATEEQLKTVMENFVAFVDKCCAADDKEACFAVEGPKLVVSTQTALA

As to `Cc1c(C)c2c(c(C)c1O)CCC(C)(C(=O)Oc1ccc(/C=C/c3cc(OC(=O)C4(C)CCc5c(C)c(O)c(C)c(C)c5O4)cc(OC(=O)C4(C)CCc5c(C)c(O)c(C)c(C)c5O4)c3)cc1)O2` (stereo not drawn) [RSVTR], the melting point – broadly, the temperature of the solid-liquid transition – lay within 113 to 116 °C. In addition, in data set [1], the “Antioxidant activity (ORAC), result in words” value is listed as “lower antioxidant capacity”. In addition, the “Anti-glycation activity (inhibition of AGEs formation), result in words” value in data set [2] was “better anti-glycation agent than RSV”. Further, the half-life (usually how long it takes for the measured level to halve) at 1.18 µM in data set [3] (0.2 N HCl solution, pH 2, pH 2.0 (0.2 N HCl), 5 °C) was 19.2 days. The molecule also had a half-life at 1.18 µM in data set [3] (0.2 N HCl solution, pH 2, pH 2.0 (0.2 N HCl), 22 °C) of 8.25 days. In data set [3] (0.2 N HCl solution, pH 2, pH 2.0 (0.2 N HCl), 37 °C), this molecule gave a half-life at 1.18 µM of 5.54 days. In data set [3] (phosphate buffer, pH 6.8, pH 6.8 phosphate buffer, 5 °C), this molecule showed a half-life at 1.18 µM of 48.1 days. In data set [3] (phosphate buffer, pH 6.8, pH 6.8 phosphate buffer, 22 °C), this molecule had a half-life at 1.18 µM of 36.1 days. In data set [3] (phosphate buffer, pH 6.8, pH 6.8 phosphate buffer, 37 °C), this molecule showed a half-life at 1.18 µM of 28.9 days. The same molecule showed a half-life at 1.18 µM in data set [3] (phosphate buffer, pH 7.2, pH 7.2 phosphate buffer, 5 °C) of 72.2 days. Besides, the half-life at 1.18 µM in data set [3] (phosphate buffer, pH 7.2, pH 7.2 phosphate buffer, 22 °C) is 28.9 days. The molecule also showed a half-life at 1.18 µM in data set [3] (phosphate buffer, pH 7.2, pH 7.2 phosphate buffer, 37 °C) of 12.5 days.

(Values after PMC7823449 (Antioxidants, 2020).)
